Measurements from patent US9604987B2, “Synthesis of autophagy inducing compound and the uses thereof” (Hong Kong Baptist University, priority 2012, dated 2017).

Columns and labels:
[1] = test system: L3 Drosophila larvae fat body; assay: LysoTracker Red staining of Drosophila L3 larvae fat body; assay type: in vivo
Experimental: Drosophila culture and drug feeding. Flies were raised at 25° C. on standard corn meal medium supplemented with dry yeast. Cory B and rapamycin were initially dissolved in DMSO then diluted in water to desired concentrations. The drug containing water was added into instant Drosophila food and mixed thoroughly. As the control, the same amount of DMSO was also mixed with instant Drosophila food. For the treatment, L3 larvae or adult flies were transferred to the drug-containing medium and incubated for indicated time.
Lysotracker staining and quantitative analysis of autophagic structures. L3 larvae were dissected using fine forceps under a dissecting microscope and inverted so that fat bodies were exposed to the incubating solution. The larvae carcasses were stained with 100 nM of LysoTracker red in PBS for 5 minutes at room temperature. After the incubation, the larvae carcasses were rinsed once in PBS and transferred to a glass slide with a drop of mounting medium on it. […] Fat body lobes were then covered with a cover slide and immediately observed under a standard fluorescence microscope. Quantitative analysis of lysotracker-positive spots was performed according to previous described protocol with minor revision. […] The numbers of lysotracker-positive spots were quantified from at least 20 randomly selected fluorescent image fields (4700 μm^2/field). […]

[2] = test system: JNPL P301 Tau mice; assay: JNPL P301 Tau mice treated intraperitoneally; assay type: in vivo; settings: 20 mg/kg/d intraperitoneally, three months
Experimental: (§1) N2a Swedish APP cells are incubated with different concentration of Cory and Cory B in the presence or absence of CQ and 3MA. […] Tg2567 APP mice, 3 months old JNPL P301 Tau mice and WT mice intraperitoneally are administrated with 20 mg/kg/d CoryB.

[3] = test system: N2a cells; assay: Tandem fluorescent mRFP-GFP-LC3 (Tf-LC3) autophagosome maturation in N2a cells; assay type: cell-based, mouse; settings: 25 μM, 24 hours
From the text: Therefore, red-only puncta indicates the normal maturation of the autolysosomes. In contrast, co-localization of GFP and RFP puncta indicates impaired fusion between autophagosomes and lysosomes or disruption of lysosome function. Here, this system is utilized and establishes a pattern of GFP and mRFP fluorescence changes in N2a cells after Cory B treatment. Cells are fixed in 4% paraformaldehyde and analyzed under a confocal microscope. […] However, the number of GFP puncta is much lower as compared to mRFP puncta, indicating efficient autophagosome-lysosome maturation and degradation. In cells treated with CQ, there is similar accumulation of GFP and mRFP puncta due to lysosome inhibition. In cells treated with both CQ and Cory B, the number of GFP and mRFP puncta are even more than in the CQ-alone group, but GFP and mRFP puncta numbers are very similar (FIG. 2E, F). The observations further confirm that enhancement of GFP- and RFP-LC3-II puncta expression by Cory B are achieved via autophagy induction flux in neuronal cells rather than inhibiting lysosomal degradation of LC3-II. Results were presented as means±SEM of one representative experiment from three independent repeats (**p<0.01 compare the difference between GFP and RFP puncta in each group, two-way ANOVA for multiple comparison and Bonferroni test as post hoc test).

[4] = test system: Tg2567 APP mice; assay: Tg2567 APP mice treated intraperitoneally; assay type: in vivo; settings: 20 mg/kg/d intraperitoneally, three months
Experimental: as §1

[5] = test system: α-syn (WT, A53T, A30P) in N2a cells; assay: Clearance of over-expressed WT and mutant α-syn in N2a cells (western blot); assay type: cell-based, mouse
Experimental: Native and denatured PAGE and Western blotting analysis. Samples to be run under denaturing conditions were lysed with RIPA lysis buffer (150 mM NaCl, 50 mM Tris-HCl, 0.35% sodium deoxycholate, 1 mM EDTA, 1% NP40, 1 mM PMSF, 5 μg/ml aprotinin, 5 μg/ml leupeptin). Samples for native gels were lysed with detergent-free lysis buffer (50 mM Tris/HCl pH 7.4, 175 mM NaCl, 5 mM EDTA pH 8.0, 1 mM PMSF, 5 μg/ml aprotinin, 5 μg/ml leupeptin), and sheared 5 times through a 28-gauge needle followed by 2 times of sonication for 5 seconds according to previously described protocol. For denaturing, SDS-PAGE was performed using Tris-Glycine SDS running buffer and SDS sample buffer, and for native conditions, native-PAGE was run with detergent-free Tris-Glycine running buffer (BN2007, Invitrogen) and 4× native sample buffer (BN2003, Invitrogen) on a pre-casted native PAGE gel (BN1002BOX, Invitrogen). The proteins on the gels were then transferred to PVDF membrane (RPN303F, GE Healthcare) and processed for immunoblotting. Membranes were blocked with 5% non-fat milk and probed with the appropriate primary and secondary antibodies. The desired bands were visualized using the ECL kit (32106, Pierce). The band density was quantified using the ImageJ program and normalized to that of the control group.
N2a cells over-expressed in WT and α-syn mutants (A53T and A30P) and N2a cells with GFP as negative control are subjected to Cory B treatment for 24 hours. […] Data presents as the mean±SEM from 3 independent experiments (*p<0.05, one-way ANOVA for multiple comparison and Tukey's test as post hoc test).

[6] = test system: α-syn oligomers; assay: BiFC-based cell model of α-syn oligomer clearance (flow cytometry); settings: 25 μM, 24 hours
Experimental: Second, the effect of Cory B on α-syn oligomers clearance is tested using a bimolecular fluorescence complementation (BiFC)-based cell model which enables visualization of α-syn oligomers. Two non-fluorescent fragments of GFP, GFP-N terminal fraction and GFP-C terminal fraction, are fused with α-syn protein; interaction of the two fragments reconstitutes the fluorophore (FIG. 5G). The presence of fluorescence signal indicates the formation of α-syn oligomers within cells. Mock transfected cells are used as blanks to gate the fluorescence-positive cells and signals stronger than 10^1 RFU are considered as positive α-syn oligomers formation. Cells are treated with 25 μM Cory B and/or 5 mM 3-MA for 24 hours and harvested for flow cytometry analysis.

## CC[C@@H]1CN2CC[C@]3(C(=O)Nc4ccccc43)C2C[C@@H]1C(=COC)C(=O)OC (stereo partly shown) [Cory B, Corynoxine B]
[1]; fed 0.2 mg/ml, 6 hours
  LysoTracker Red-positive puncta in fat bodies: induces formation of LysoTracker Red-positive puncta
[1]; with autophagy inhibitor 3-MA
  LysoTracker Red puncta formation in presence of 3-MA: blocked
[2]
  total tau: significantly decrease
[3]
  GFP and mRFP puncta formation (Tf-LC3): induces massive GFP and mRFP puncta formation
  number of GFP puncta compared to mRFP puncta: much lower
[4]
  Fl-APP/CTF: significantly decrease
[5]; 5 mM 3-MA and 30 μM CQ
  α-syn pro-clearance activity under 3-MA and CQ: abolish pro-clearance activity
[5]; N2a over-expressing WT, A53T, A30P α-syn, 24 hours
  WT and mutant α-syn levels: reduces WT and mutant α-syn levels in a dose-dependent manner
[5]; N2a with GFP, 24 hours
  GFP levels (negative control protein): does not reduce GFP levels
[6]
  degradation of α-syn oligomers (fluorescence intensity): promotes degradation of α-syn oligomers
